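Assay format: 96-well plates, 48-hour exposure. The concentration for 50% growth inhibition is given as GI50. At the TGI there is no net growth.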

Holding throughout (assay): growth of human tumour cells (NCI), 48 h
Assay [1] relates to UACC-257 melanoma.
The subject of assay [2] is MDA-MB-231 breast.
The test system of assay [3] is SK-OV-3 ovarian.
Assay [4] has as its system 786-0 renal.
For assay [5], the system named is OVCAR-5 ovarian.
Assay [6] relates to A498 renal.
The test system of assay [7] is SW-620 colon.
Assay [8] deals with KM12 colon.
The test system of assay [9] is NCI/ADR-RES ovarian.
For assay [10], the system named is RPMI-8226 leukemia.

Take `Nc1c(C(=O)Nc2cccc(Cl)c2Cl)sc2nc3c(cc12)C(=O)CCC3`: the GI50 in [1] was over 100 µM; in assay [2], over 100 µM; in assay [3], 3.8 µM; in [4], over 100 µM; in assay [5], over 100 µM; in [6], 0.399 µM. For the same compound, the GI50 in [7] was 61.2 µM; in [8], over 100 µM; in assay [9], over 100 µM; in [10], over 100 µM. Further, the TGI in assay [1] was over 100 µM; in assay [2], over 100 µM; in [3], over 100 µM; in [4] it was over 100 µM; in assay [5] it was over 100 µM; in assay [6], 9.33 µM. For the same compound, the TGI in assay [7], in assay [8], in assay [9] and in [10] was over 100 µM throughout.
`CC[C@H](C)C(=O)O[C@H]1C[C@H](O)C=C2C=C[C@H](C)[C@H](CC[C@@H](O)C[C@@H](O)CC(=O)O)[C@H]21`: the GI50 in assay [1] was over 100 µM; in [2], over 100 µM; in assay [3], over 100 µM; in [4] it was over 100 µM; in assay [5], over 100 µM; in [6], 11.6 µM. Besides, the GI50 in assay [7], in [8], in [9] and in assay [10] was over 100 µM each time. The TGI in assay [1], in [2], in [3], in assay [4], in [5] and in [6] was over 100 µM in each case. Besides, the TGI in assay [7], in [8], in [9] and in assay [10] was over 100 µM in each case.
Take `Cc1coc2c1C(OC(=O)C(C)C)C1(C)C(C)CCC(O)C1C2=O` (centres undefined): the TGI in assay [1], in [2], in [3], in assay [4], in assay [5] and in assay [6] was over 100 µM each time. Further, the TGI in [7], in assay [8], in assay [9] and in [10] was over 100 µM in each case.
For `C=CC1=C(C)C2=NC1=CC1=NC(=C(CC)/C1=C\O)C=C1N=C3C(=C1C)C(=O)[C@H](C(=O)OC)C3=C1NC(=C2)[C@@H](C)[C@@H]1CCC(=O)O`, the TGI in [1], in [2], in assay [3], in assay [4], in assay [5] and in assay [6] was over 100 µM in each case. The TGI in assay [7], in assay [8] and in assay [9] was over 100 µM each time.
On to `COc1cccc2c1n([O-])c1cccc(OC)c1[n+]2=O`, for which the GI50 in assay [1] is 9.69 µM; in assay [2], 20.9 µM; in assay [3], 10.5 µM; in [4] it was 8.78 µM; in assay [5] it was 9.71 µM; in [6], 16.4 µM. Moreover, the GI50 in [7] was 4.91 µM; in assay [8] it was 10.6 µM; in assay [9], 3.81 µM; in assay [10], 4.67 µM. Further, the TGI in assay [1] is 28.7 µM; in assay [2], over 100 µM; in assay [3] it was 28.9 µM; in [4], 28.8 µM; in assay [5], 27.3 µM; in assay [6], over 100 µM. Besides, the TGI is 21.7 µM in [7], 29.6 µM in assay [8], 22.7 µM in assay [9] and 25 µM in assay [10].
`N#CC1C=Cc2c(ccc3ccccc23)N1C(=O)c1ccccc1` (centres undefined): the GI50 is 14.7 µM in [1]; 0.763 µM in [2]; 0.311 µM in assay [3]; 0.909 µM in [4]; 0.519 µM in assay [5]; 0.139 µM in assay [6]. In addition, the GI50 was 0.0657 µM in assay [7], 0.141 µM in [8], 0.187 µM in [9] and 0.39 µM in assay [10]. Besides, the TGI in assay [1] is over 100 µM; in assay [2], over 100 µM; in assay [3] it was 29.7 µM; in [4], over 100 µM; in assay [5], over 100 µM; in [6], 2.48 µM. In addition, the TGI was over 75.2 µM in assay [7], 3.98 µM in assay [8] and over 100 µM in assay [10].
`O=C1OCC2=C1C(c1ccccc1)c1cc3c(cc1N2CCO)OCCO3` (centres undefined): the GI50 in assay [2] is 1.14 µM; in assay [3], 0.348 µM; in assay [4], 0.288 µM; in assay [5] it was 2.12 µM; in [6], 0.188 µM; in assay [7], 0.224 µM. Besides, the GI50 is 0.207 µM in [8], 0.377 µM in assay [9] and 0.392 µM in assay [10]. Further, the TGI in assay [2] was 11.5 µM; in assay [3], 13.4 µM; in assay [4], over 50 µM; in assay [5], over 50 µM; in assay [6] it was 4.05 µM; in [7], over 50 µM. Further, the TGI in [8] is 6.19 µM; in [9], 1.93 µM; in assay [10], over 50 µM.
As for `Cc1ccc(Sc2cc3c(oc2=O)-c2ccccc2OC3O)cc1` (centres undefined), the GI50 is 22.3 µM in assay [1]; 28.8 µM in [2]; 24.3 µM in assay [4]; 23.9 µM in assay [5]; 26.1 µM in assay [6]; 22.4 µM in assay [7]. Moreover, the GI50 in [8] was 21.5 µM; in assay [9] it was 25.2 µM; in [10] it was 23.2 µM. Also, the TGI turned out to be 43.8 µM in assay [1]; 71.2 µM in [2]; 51.6 µM in assay [4]; 49 µM in assay [5]; 51.5 µM in assay [6]; 52.3 µM in [7]. Moreover, the TGI was determined as 49.7 µM in assay [8], 60.5 µM in [9] and 79.7 µM in assay [10].
